system: not given; experiment: not given; settings: not given

For `COc1cc2c(cc1OC)[C@H]1CCCC[C@H]1N=C2c1ccc(C(C)=NO)cc1` [Compound 1, 1-[4-((4aR,10bR)-8,9-Dimethoxy-1,2,3,4,4a,10b-hexahydrophenanthridin-6-yl}-phenyl]-ethanone oxime], the melting point was 189 to 192 °C.

system: PDE4; experiment: Inhibition of the PDE4 activity (cytosol from human neutrophils, [3H]cAMP hydrolysis); type: biochemical; set-up: unit not given here; settings: 0.5 μM cAMP, Motapizone 1 μM to suppress PDE3
Description: Method for Measuring Inhibition of PDE4 Activity
PDE4 activity was determined as described by Thompson et al. (Adv Cycl Nucl Res 10:69-92, 1979) with some modifications (Bauer and Schwabe, Naunyn-Schmiedeberg's Arch Pharmacol 311:193-198, 1980). At a final assay volume of 200 μl (96well microtiter plates) the assay mixture contained 20 mM Tris (pH 7.4), 5 mM MgCl2, 0.5 μM cAMP, [^3H]cAMP (about 30,000 cpm/assay), the test compound and an aliquot of cytosol from human neutrophilis which mainly contains PDE4 activity as described by Schudt et al. (Naunyn-Schmledeberg's Arch Pharmacol 344:682-690, 1991); the PDE3-specific inhibitor Motapizone (1 μM) was included to suppress PDE3 activity originating from contaminating platelets. Serial dilutions of the compounds were prepared in DMSO and further diluted 1:100 (v/v) in the assays to obtain the desired final concentrations of the inhibitors at a DMSO concentration of 1% (v/v) which by itself only slightly affected PDE4 activity.
After preincubation for 5 min at 37° C., the reaction was started by the addition of substrate (cAMP) and the assays were incubated for further 15 min at 37° C. 50 μl of 0.2 N HCl was added to stop the reaction and the assays were left on ice for about 10 min. Following incubation with 25 μg 5′-nucleotidase (Crotalus atrox snake venom) for 10 min at 37° C., the assays were loaded on QAE Sephadex A-25 (1 ml bed volume). The columns were eluted with 2 ml of 30 mM ammonium formulate (pH 6.0) and the […] for radioactivity. Results were corrected for blank values (measured in the presence of denatured protein) which were below 5% of total radioactivity. […] The IC50 -values for the compounds according to the invention for the inhibition of the PDE4 activity were determined from the concentration-inhibition curves by nonlinear-regression.

First: COc1cc2c(cc1OC)[C@H]1CCCC[C@H]1N=C2c1ccc(C(C)=NO)cc1 [Compound 1, 1-[4-((4aR,10bR)-8,9-Dimethoxy-1,2,3,4,4a,10b-hexahydrophenanthridin-6-yl}-phenyl]-ethanone oxime]
Second: CCON=C(C)c1ccc(C2=N[C@@H]3CCCC[C@@H]3c3cc(OC)c(OC)cc32)cc1 [Compound 6, 1-[4-((4aR,10bR)-8,9-Dimethoxy-1,2,3,4,4a,10b-hexahydrophenanthridin-6-yl}-phenyl]ethanone O-ethyloxime]
The “−log IC50, Inhibition of the PDE4 activity” value (shortened to “−log IC50, Inhibition”) of the first is higher: 9.43 for the first, 8.08 for the second.

First: COc1cc2c(cc1OC)C1CCCCC1N=C2c1ccc(C(=NO)c2ccccc2)cc1 [Compound 2, 1-[4-((4aR,10bR)-8,9-Dimethoxy-1,2,3,4a,10b-hexahydrophenanthridin-6-yl}phenyl]-1-phenyl-methanone oxime]
Second: COc1cc2c(cc1OC)[C@H]1CCCC[C@H]1N=C2c1cccc(C(=NO)c2ccccc2)c1 [Compound 26, 1-[3-((4aR,10bR)-8,9-Dimethoxy-1,2,3,4,4a,10b-hexahydrophenanthridin-6-yl}-phenyl]-1-phenyl-methanone oxime]
The “−log IC50, Inhibition” value of the first is lower: 9.04 for the first, 9.27 for the second.

`COc1cc2c(cc1OC)[C@H]1CCCC[C@H]1N=C2c1ccc(C(C)=NOCc2ccccc2)cc1` [Compound 4, 1-[4-((4aR,10bR)-8,9-Dimethoxy-1,2,3,4,4a,10b-hexahydrophenanthridin-6-yl}-phenyl]-ethanone O-benzyloxime] and `COc1cc2c(cc1OC)C1CCCCC1N=C2c1ccc(C(C)=NOc2ccccc2)cc1` [Compound 7, 1-[4-((4aR,10bR)-8,9Dimethoxy-1,2,3,4,a,10b-hexahydrophenanthridin-6-yl}-phenyl]ethanone O-phenyloxime] are within 0.2 log units of each other in “−log IC50, Inhibition” value: 8.20 for the first, 8.26 for the second.

`COc1cc2c(cc1OC)[C@H]1CCCC[C@H]1N=C2c1ccc(C(C)=NOCc2ccc([N+](=O)[O-])cc2)cc1` [Compound 5, 1-[4-((4aR,10bR)-8,9-Dimethoxy-1,2,3,4,4a,10b-hexahydrophenanthridin-6-yl}-phenyl]-ethanone O-(4-nitrobenzyl)-oxime] and `COc1cc2c(cc1OC)[C@H]1CCCC[C@H]1N=C2c1ccc(C(C)=NOCc2ccc(F)cc2)cc1` [Compound 16, 1-[4-((4aR,10bR)-8,9-Dimethoxy1,2,3,4,4a,10b-hexahydrophenanthridin-6-yl}-phenyl]-ethanone O-(4-flurobenzyl)-oxime] are within 0.2 log units of each other in “−log IC50, Inhibition” value: 8.41 for the first, 8.36 for the second.

Compared with `COc1cc2c(cc1OC)[C@H]1CCCC[C@H]1N=C2c1ccc(C(C)=NOCC(C)C)cc1` [Compound 8, 1-[4-((4aR,10bR)-8,9-Dimethoxy-1,2,3,4,4a,10b-hexahydrophenanthridin-6yl)-phenyl]-ethanone O-isobutyloxime], `COc1cc2c(cc1OC)C1CCCCC1N=C2c1ccc(C(C)=NOCc2cccc(Cl)c2)cc1` (centres unmarked) [Compound 13] is higher in “−log IC50, Inhibition” value: 8.01 for the first, 8.41 for the second.

First: COc1ccccc1NC(=O)CON=C(C)c1ccc(C2=N[C@@H]3CCCC[C@@H]3c3cc(OC)c(OC)cc32)cc1 [Compound 11, 2-{1-[4-((4aR,10bR)-8,9-Dimethoxy-1,2,3,4,4a,10b-hexahydrophenanthridin-6-yl)-phenyl]ethylideneaminooxy}-N-(2-methoxyphenyl)-acetamide]
Second: COc1ccccc1CON=C(C)c1ccc(C2=N[C@@H]3CCCC[C@@H]3c3cc(OC)c(OC)cc32)cc1 [Compound 15, 1-[4-((4aR,10bR)-8,9-Dimethoxy-1,2,3,4,4a,10b-hexahydrophenanthridin-6-yl}-phenyl]-ethanone O-(2-methoxy-benzyl)-oxime]
The “−log IC50, Inhibition” value of the first is higher: 8.87 for the first, 8.33 for the second.

`COc1cc2c(cc1OC)C1CCCCC1N=C2c1ccc(C(C)=NOCC(=O)NCc2ccc(Cl)cc2)cc1` [Compound 12, N-(4-Chlorobenzyl)-2-{1-[4-((4aR,10bR)-8,9-dimethoxy-1,2,3,4,a,10b-hexahydrophenanthridin-6-yl)-phenyl]-ethylideneaminooxy}-acetamide] and `COc1cc2c(cc1OC)[C@H]1CCCC[C@H]1N=C2c1ccc(C(C)=NOCc2ccc(Cl)cc2)cc1` [Compound 22, 1-[4-((4aR,10bR)-8,9-Dimethoxy-1,2,3,4,4a,10b-hexahydrophenanthridin-6-yl)-phenyl]-ethanone O-(4-chlorobenzyl)-oxime] are within 0.2 log units of each other in “−log IC50, Inhibition” value: 8.48 for the first, 8.62 for the second.

`COc1cc2c(cc1OC)[C@H]1CCCC[C@H]1N=C2c1ccc(C(C)=NOCc2cccc(C(F)(F)F)c2)cc1` [Compound 14, 1-[4-((4aR,10bR)-8,9-Dimethoxy-1,2,3,4,4a,10b-hexahydrophenanthridin-6-yl}-phenyl]-ethanone O-(3-trifluoromethylbenzyl)-oxime] and `COc1cc2c(cc1OC)[C@H]1CCCC[C@H]1N=C2c1ccc(C(C)=NOCc2cccc(F)c2)cc1` [Compound 17] are within 0.2 log units of each other in “−log IC50, Inhibition” value: 8.43 for the first, 8.47 for the second.

`COc1cc2c(cc1OC)[C@H]1CCCC[C@H]1N=C2c1ccc(C(C)=NOCc2ccccc2Cl)cc1` [Compound 18, 1-[4-((4aR,10bR)-8,9-Dimethoxy-1,2,3,4,4a,10b-hexahydrophenanthridin-6-yl}-phenyl]-ethanone O-(2-chlorobenzyl)-oxime] and `COc1cc2c(cc1OC)[C@H]1CCCC[C@H]1N=C2c1ccc(C(C)=NOCCOc2ccccc2)cc1` [Compound 19, 1-[4-((4aR,10bR)-8,9-Dimethoxy-1,2,3,4,4a,10b-hexahydrophenanthridin-6-yl)-phenyl]-ethanone O-(2-phenoxyethyl)-oxime] are the same in “−log IC50, Inhibition” value: 8.73 for the first, 8.73 for the second.

Compared with `COc1cc2c(cc1OC)[C@H]1CCCC[C@H]1N=C2c1ccc(C(C)=NOCCOc2cccc(C(F)(F)F)c2)cc1` [Compound 20, 1-[4-((4aR,10bR)-8,9-Dimethoxy-1,2,3,4,4a,10b-hexahydrophenanthridin-6-yl}-phenyl]-ethanone O-[2-(3-trifluoromethylphenoxy)-ethyl]-oxime], `COc1ccc(CON=C(C)c2ccc(C3=NC4CCCCC4c4cc(OC)c(OC)cc43)cc2)cc1` [Compound 23, 1-[4-((4aR,10bR)-8,9-Dimethoxy-1,2,3,4,4a,10b-hexahydrophenanthridin-6}-phenyl]-ethanone O-(4-methoxybenzyl)-oxime] is higher in “−log IC50, Inhibition” value: 8.00 for the first, 8.75 for the second.

`COc1cc2c(cc1OC)[C@H]1CCCC[C@H]1N=C2c1ccc(C(C)=NOCC(=O)N2CCOCC2)cc1` [Compound 24, 2-{1-[4-((4aR,10bR)-8,9-Dimethoxy-1,2,3,4,4a,10b-hexahydrophenanthridin-6-yl)-phenyl]-ethylideneaminooxy}-1-morpholin-4-yl-ethanone] and `COc1cc2c(cc1OC)C1CCCCC1N=C2c1cccc(C(C)=NO)c1` (centres unmarked) [Compound 25] are within 0.2 log units of each other in “−log IC50, Inhibition” value: 8.25 for the first, 8.33 for the second.

— patent US20060189641A1, “Novel 6-phenlyphenanthridines” (priority 2003, published 2006)
